Experimental data reported in patent US20200011852A1, “METHODS FOR PREDICTING THE ANTICANCER THERAPEUTIC RESPONSE OF L-ASCORBIC ACID” (priority 2018, published 2020).

Columns and labels:
Type in all cases: cell-based, human
[1] = tested on: SVCT-2 high-expression cell lines, Sw480 and Sw620; assay: Vitamin C absorption in Sw480 and Sw620 with the SVCT family inhibitor phloretin; conditions: phloretin 20 μM together with vitamin C 1 mM
Description: In order to measure the vitamin C absorption of each colorectal cancer cell line, the absorption of vitamin C in cells was analyzed with High Performance Liquid Chromatography (HPLC), and the result was shown in FIG. 1c.
Then, after treating 1 mM vitamin C, or treating vitamin C 1 mM and phloretin 20 μM together to each cell line of the SVCT-2 high-expression cell lines, Sw480 and Sw620, the vitamin C absorption was measured, and the result was shown in FIG. 9a.
The experimental results measured according to the method for measuring the vitamin C absorption of SVCT-2 expression cell lines of Example 1-3, after treating various concentrations (0 mM or 1 mM) of vitamin C and treating 1 mM vitamin C and 20 μM phloretin, for SVCT-2 high-expression cell lines, Sw480 and Sw620 were shown in FIG. 9a.

[2] = tested on: SVCT-2 high-expression cell lines, Sw480 and Sw620; assay: Cell viability of Sw480 and Sw620 treated with vitamin C and/or phloretin; conditions: for cell response (cell viability): Sw620 and Sw480
Description: (§1) The cell viability was measured by Neutral red (sigma) assay. Cells (1×10^4/each well) were inoculated on a 96-well plate and were cultured for 24 hours and were treated with vitamin C for 4 hours, and then were washed with PBS (Pan Biotech), and were further cultured in RPMI1640 without vitamin C for 20 hours. They were washed twice and were stained.

[3] = tested on: Sw620 and Sw480 cell lines; assay: ROS production by DCF-Da staining (FACS), SVCT-2 high-expression cell lines
Description: In order to confirm ROS production in SVCT-2 high-expression cell lines in the apoptosis response and hormetic response, and more specifically confirm the cause of the result of Example 5, the present inventors investigated ROS production using DCF-Da staining in Sw620 cell line and Sw480 cell line, and the result was shown in FIG. 5c and FIG. 5d.

[4] = tested on: SVCT-2 high-expression cells; assay: c-Myc localization by immunocytochemistry, SVCT-2 high-expression cell lines; conditions: phloretin treated together with vitamin C
Description: (§2) Cells treated with vitamin C were immobilized with 4% paraformaldehyde for 10 minutes and were washed with PBS 3 times for 5 minutes, and then permeable buffer (Biolegend, San Diego, Calif., USA) was treated for 10 minutes. Then, cells were washed with PBS 3 times and were cultured with anti-c-Myc (1:500; NB200-108, Novus biologics) antibody at 4° C. overnight. Then, after washing with PBS 4 times, cells were cultured with a secondary anti-mouse-TRITC (1:1000; ab6786; Abcam) conjugated antibody.
In order to confirm the cell proliferation by the hormetic response in cancer cell lines, the cell proliferation confirmation experiment through c-Myc was conducted.
Specifically, after smearing cells on cover glass and culturing them, vitamin C was treated and after washing with PBS, an antigen with […] as antigens was attached to cells, and it was confirmed through fluorescence.

[5] = tested on: SVCT-2 high-expression cell lines, Sw480 and Sw620; assay: Western blot of Bax, c-Myc and Cyclin D1, SVCT-2 high-expression cell lines
Description: (§3) Protein was extracted from frozen tissue using PRO-PREP protein extraction kit according to the instruction of the manufacturer. The protein concentration was measured using Bradford assay (Bio-RAD, Munich, Germany)
(§4) After denaturalizing protein 30 μg in sample buffer at 95° C. for 6 minutes, samples were loaded on 12% SDS-polyacrylamide gel and were transferred to a nitrocellulose blotting membrane. Subsequently, the membrane was blocked with 5% skim milk in Tris-buffered saline. Then, after washing it with Tris-buffered saline-0.10% Tween 20 three times, the membrane was cultured at 4° C. overnight with anti-cyclin D1 (1:2500; NB600-584; Novus biologics), anti-c-Myc (1:2500; NB200-108; Novus biologics), anti-Bax (1:2000; 2774; Cell Signaling Technology, Beverly, Mass., USA), and anti-beta-actin (1:5000; ab20272; Abcam, Cambridge, Mass., USA) antibodies. Then, after washing it with Tris-buffered saline-0.10% Tween 20 4 times for 20 minutes, the membrane was cultured with a secondary anti-rabbit, anti-rat or anti-goat antibody for 1 hour. After additional washing, immunoreactive bands exposed to ECL substrate (Pierce, Rockford, Ill., USA) and X-ray film (Agfa-Gevaert N.V, Septestraat, Mortsel, Belgium) were detected.
After treating vitamin C 10 μM and phloretin to SVCT-2 high-expression cell lines, Sw480 and Sw620 at the same time, the western blot analysis of Bax, c-Myc and Cyclin D1 in cells was conducted, and the result was shown in FIG. 6c and FIG. 6d.

[6] = tested on: SVCT-2 high-expression cell lines, Sw620 and Sw480; assay: qRT-PCR gene expression analysis, SVCT-2 high-expression cell lines
Description: (§5) According to the method provided by the manufacturer, the total RNA of cells was extracted using TRI reagent (MRC; Molecular Research Center, Cincinnati, Ohio, USA). The RNA concentration was determined using a spectrophotometer reading the absorbance at 260 nm. cDNA was synthesized using mML-V reverse transcriptase (Bioneer Co, Daejeon, Republic of Korea) according to the protocol provided by the manufacturer. Then, using SYBR Premix Ex Taq (TaKaRa, Otsu, Shinga, Japan) and Rotor-Gene Q system (Qiagen, Chadstone, Victoria, Australia), quantitative real-time PCR was carried out. Data were analyzed using Rotor-Gene Q series software version 2.3.1 (Qiagen).
(§6) In order to confirm the apoptosis and hormetic proliferation response by vitamin C, the quantitative real-time polymerase chain reaction (qRT-PCR) gene-expression analysis of p53, Cyclin D1, E2F1 and Ki-67 genes was conducted using the method of Experimental example 3, and the result was shown in FIG. 2c to FIG. 2f.
After treating vitamin C 10 μM and phloretin to SVCT-2 high-expression cell lines, Sw480 and Sw620 at the same time, the relative expression of Ki-67 and E2F1 used as cancer cell proliferation markers was measured using the qRT-PCR of Example 1, and the result was shown in FIG. 5e and FIG. 5f.

[7] = tested on: SVCT-2 low-expression cell lines, DLD-1 and HCT15; assay: qRT-PCR gene expression analysis, SVCT-2 low-expression cell lines
Description: as §5, §6

[8] = tested on: SVCT-2 low-expression cell lines (HCT116, CoLo-205, HCT15, DLD-1); assay: Cell viability (Neutral red), vitamin C concentration gradient, SVCT-2 low-expression cell lines
Description: as §1
(§7) In order to research a role conducted by vitamin C treated at a high concentration or low concentration to cancer cell lines, after treating vitamin C at various concentrations according to a concentration gradient to each cell line, the cell viability analysis was conducted using the method of Experimental example 2.
After treating vitamin C to SVCT-2 low-expression cell liens (HCT116, CoLo-205, HCT15, DLD-1) according to a concentration gradient (0 μm to 2 mM), the cell viability was measured, and the result was shown in FIG. 2a.

[9] = tested on: SVCT high-expression cell lines (Sw480, Sw620, LoVo, SNU-C4); assay: Cell viability (Neutral red), vitamin C concentration gradient, SVCT-2 high-expression cell lines
Description: as §1, §7
As same as the SVCT low-expression cell lines, after treating vitamin C to SVCT high-expression cell lines (Sw480, Sw620, LoVo, SNU-C4) according to a concentration gradient (0 μm to 2 mM), the cell viability was measured, and the result was shown in FIG. 2b. It was confirmed that in case of high-expression cell lines, when treating a low concentration of vitamin C, the cell viability was reduced, and as the treated concentration of vitamin C increased, the cell viability was reduced more.

[10] = tested on: HCT15 and DLD-1 cell lines; assay: c-Myc localization by immunocytochemistry, SVCT-2 low-expression cell lines; conditions: vitamin C 1 mM or 10 μM
Description: as §2
In order to investigate the expression of cancer proliferation markers in SVCT-2 low-expression cell lines and localization where c-Myc is present in cancer cell lines, after treating vitamin C of 1 mM or 10 μM to each SVCT-2 low-expression cell line, HCT15 and DLD-1 cell lines, the immunocytochemistry of Experimental example 5 was conducted, and the result was shown in FIGS. 4a and 4b.

[11] = tested on: colorectal cancer cell lines (Sw480, Sw620, LoVo, SNU-C4, HCT116, SNU-05, CoLo-205, HCT15, DLD-1); assay: Cell viability (Neutral red) of colorectal cancer cell lines treated with 1 mM vitamin C; conditions: nine colorectal cancer cell lines
Description: Human colorectal cancer cells were cultured in RPMI1640 medium Gilbco, Cergy Pontoise, France) containing 10% bovine fetal serum (PAN Biotech, Aidenbach, Germany) and 1% Penstrep (PAN Biotech) in a humidified incubator comprising 5% CO2 under the condition of 37° C. Vitamin C was purchased from BCWORLD PHARM (BCWORLD PHARM. CO, Seoul, Korea), and phloretin was purchased from sigma Aldrich (Sigma, St. Louis, Mo., USA).
The human colorectal cancer cell lines used in the experiment were Sw480, Sw620, HCT116, HCT15, SNU-C4, SNU-05, DLD-1, LoVo, and CoLo-205 cell lines commonly used in the related art. All the colorectal cancer cell lines used in the experiment of the present invention were received from Dr. Yu Byung-Chul of National Cancer Center.
as §1
The cell viability of each colorectal cancer cell line was measured using the method of Experimental example 2, and the result was shown in FIG. 1b.

[12] = tested on: SVCT-2 low-expression cell lines (DLD1 and HCT15); assay: ROS production by DCF-Da staining (FACS), SVCT-2 low-expression cell lines; conditions: 15 minutes, DLD-1 and HCT15
Description: In order to investigate ROS production, when treating vitamin C of 10 μM or 1 mM to SVCT-2 low-expression cell lines (DLD1 and HCT15), after treating each dose of vitamin C to SVCT-2 low-expression cell lines, they were stained with DCF-Da, and the ROS measurement result was shown in FIG. 3a and FIG. 3b.

HCT15 and DLD-1 = assay: Western blot of Bax, c-Myc and Cyclin D1, SVCT-2 low-expression cell lines
Description: as §3, §4
In order to investigate the apoptosis and proliferation of cancer cells by vitamin C treatment in the protein expression level, a low concentration or high concentration of vitamin C was treated to SVCT-2 low-expression cell lines and the western blot analysis of Bax, c-Myc, and Cyclin D1 was conducted using the method of Experimental example 4, and the result was shown in FIG. 4c and FIG. 4d.

[13] = 10 μM vitamin C and phloretin at the same time
[14] = vitamin C 10 μM and phloretin at the same time, Sw620 and Sw480
[15] = low concentration (10 μM) vitamin C, DLD-1 and HCT15
[16] = 10 μM or 1 mM vitamin C without phloretin
[17] = vitamin C 10 μM or 1 mM, Sw620 and Sw480

For `O=C(CCc1ccc(O)cc1)c1c(O)cc(O)cc1O` [phloretin], the “intracellular capacity of vitamin C (vitamin C absorption)” value [1] was “reduced”, the “cytotoxicity of phloretin (cell viability assay)” value ([2]; concentration of phloretin used in the experiment (20 μM; 0-40 μM tested), Sw480 and Sw620) was “no cell self-toxicity” and the “cell response (cell viability)” value ([2]; phloretin together with vitamin C 10 μM) was “hormetic proliferation response occurred”. For the same molecule, the “ROS production (DCF-Da)” value ([3]; 20 μM phloretin with 10 μM vitamin C) was “not sufficiently produced”, the “localization of increased c-Myc (immunocytochemistry)” value [4] was “present in cytoplasm not a nucleus” and the “expression of C-Myc (western blot)” value [5, 13] was “increased”. The “expression of cyclin D1 (western blot)” value [5, 13] was “increased”, the “Bax expression (western blot)” value ([5]; phloretin treatment (with 10 μM vitamin C)) was “did not change remarkably” and the “expression of E2F1 (qRT-PCR)” value [6, 14] was “increased”. For the same molecule, the “expression of Ki-67 (qRT-PCR)” value [6, 14] was “increased”.

In the case of `O=C1O[C@H]([C@@H](O)CO)C(O)=C1O` [vitamin C, L-ASCORBIC ACID], the “expression of p53 (qRT-PCR)” value ([7]; 10 μM and 1 mM tested, SVCT-2 low-expression cell lines) was “induced only in case of treatment of 1 mM vitamin C”, the “expression of E2F1 (qRT-PCR)” value [7, 15] was “increased” and the “expression of Ki-67 (qRT-PCR)” value [7, 15] was “increased”. For the same molecule, the “expression of cyclin D1 (qRT-PCR)” value [7, 15] was “increased”, the cell viability ([8]; vitamin C 1.0 mM to 2.0 mM or more) was “dramatically reduced” and the cell viability ([8]; vitamin C less than 10 μM) was “over 100%”. The cell viability ([9]; as the treated concentration of vitamin C increased (up to 2 mM)) was “reduced more”, the cell viability ([9]; low concentration of vitamin C) was “reduced” and the “cell response (cell viability)” value ([2]; vitamin C 1 mM and 10 μM, without phloretin) was “apoptosis response was induced”. The “c-Myc localization (immunocytochemistry)” value [10] was “almost localized in cytoplasm”, the “cytotoxicity of vitamin C (cell viability)” value [11] was “proportional to SVCT-2 expression” and the “ROS production (DCF-Da)” value ([12]; 10 μM vitamin C) was “not produced”. For the same molecule, the “ROS production (DCF-Da)” value ([12]; 1 mM vitamin C) was “produced”, the “ROS production (DCF-Da)” value ([3]; 1 mM vitamin C or 10 μM vitamin C) was “produced” and the “expression of c-Myc (western blot)” value (HCT15 and DLD-1; 10 μM vitamin C) was “increased”. The “expression of cyclin D1 (western blot)” value (HCT15 and DLD-1; 10 μM vitamin C) was “increased”, the “expression of c-Myc (western blot)” value (HCT15 and DLD-1; 1 mM vitamin C) was “reduced” and the “expression of cyclin D1 (western blot)” value (HCT15 and DLD-1; 1 mM vitamin C) was “reduced”. For the same molecule, the “Bax expression (western blot)” value (HCT15 and DLD-1; vitamin C 1 mM and 10 μM) was “did not significantly change”, the “expression of C-Myc (western blot)” value [5, 16] was “significantly reduced” and the “expression of cyclin D1 (western blot)” value [5, 16] was “significantly reduced”. The “Bax expression (western blot)” value ([5]; vitamin C treatment (10 μM or 1 mM)) was “increased”, the “expression of p53 (qRT-PCR)” value ([6]; 10 μM and 1 mM, SVCT-2 high-expression cell lines) was “increased” and the “expression of E2F1 (qRT-PCR)” value [6, 17] was “reduced”. For the same molecule, the “expression of Ki-67 (qRT-PCR)” value [6, 17] was “reduced” and the “expression of cyclin D1 (qRT-PCR)” value [6, 17] was “reduced”.
